Experimental findings from patent US12708630B2, “Combined therapy of 4′-thio-5-aza-2′-deoxycytidine and Venetoclax” (PINOTBIO, INC., priority 2021, dated 2026) are described below.

For series [1], the system named is systemic MV4-11 engraftment model. As for the experimental part: After establishing a systemic MV4-11 engraftment model that more accurately depicts the disease in humans, Aza-T-dCyd was administered orally at doses ranging from 0.4 to 1.5 mg/kg.
After establishment of the systemic MV4-11 engraftment model, Aza-T-dCyd was administered orally at doses of 1.5, 2.0, and 2.5 mg/kg (using the standard dose/dosing schedule used in preclinical trials for decitabine/azacytidine).
After establishing a systemic MV4-11 engraftment model, blood was collected at pre-treatment (Day 21) and mid-treatment (Day 36, 56, 77) in the Aza-T-dCyd and Decitabine/Azacytidine groups and analyzed for complete blood count (CBC) values.
To determine whether the anti-cancer efficacy in the systemic MV4-11 engraftment model was directly related to the ability to suppress the number of cancer cells, we performed experiments to measure body luminescence after systemic engraftment using the luciferase-transfected Mv4-11 cell line.

In the next series the test system is DNA methylation. Briefly: DNA demethylation. The format is cell-based. The text has this:
Through DNA demethylation caused by Aza-T-dCyd treatment, various tumor suppressor genes and genes required for differentiation induction of AML cells were reactivated, and the reactivated expression patterns of these genes were confirmed by RNA-seq data analysis (FIG. 24).

The test system of another series is leukemia cell lines. Briefly: Growth-inhibitory activity on leukemia cell lines (GI50). It is filed as cell-based. To be noted: 72 h, read-out: GI50 values (half maximal growth inhibitory concentrations). As for the experimental part:
The growth-inhibitory activity of Aza-T-dCyd, a DNMT1 inhibitor, was measured in leukemia cell lines to determine its inhibitory effect on cell proliferation.
The growth-inhibitory activity of DNMT1 inhibitors, Aza-T-dCyd and Decitabine, was measured on leukemia cell lines to determine their effect on cell proliferation.

In series [2] the target is T1, DNMT1 (Homo sapiens, UniProt P26358). Briefly: DNMT1 expression in HL-60 xenograft tumor samples. The format is in vivo, mice. Set-up: tumor samples were collected on day 11 to determine the expression of DNMT1, DNMT3A, and DNMT3B; from tissue; host or cells: HL-60 xenograft tumour samples (mouse host). To be noted: 2 mg/kg NTX-301 or 0.75 mg/kg Decitabine intraperitoneally, day 11. As for the experimental part: (§1) As the efficacy of DNMT1 inhibitors correlates with their selective profile for targeting DNMT1 and the de novo methyltransferases DNMT3A and DNMT3B, we confirmed the expression of DNMT1, DNMT3A, and DNMT3B in the Aza-T-dCyd and Decitabine treated groups in this xenograft model (FIG. 27).
T1 sequence (P26358 whole entry): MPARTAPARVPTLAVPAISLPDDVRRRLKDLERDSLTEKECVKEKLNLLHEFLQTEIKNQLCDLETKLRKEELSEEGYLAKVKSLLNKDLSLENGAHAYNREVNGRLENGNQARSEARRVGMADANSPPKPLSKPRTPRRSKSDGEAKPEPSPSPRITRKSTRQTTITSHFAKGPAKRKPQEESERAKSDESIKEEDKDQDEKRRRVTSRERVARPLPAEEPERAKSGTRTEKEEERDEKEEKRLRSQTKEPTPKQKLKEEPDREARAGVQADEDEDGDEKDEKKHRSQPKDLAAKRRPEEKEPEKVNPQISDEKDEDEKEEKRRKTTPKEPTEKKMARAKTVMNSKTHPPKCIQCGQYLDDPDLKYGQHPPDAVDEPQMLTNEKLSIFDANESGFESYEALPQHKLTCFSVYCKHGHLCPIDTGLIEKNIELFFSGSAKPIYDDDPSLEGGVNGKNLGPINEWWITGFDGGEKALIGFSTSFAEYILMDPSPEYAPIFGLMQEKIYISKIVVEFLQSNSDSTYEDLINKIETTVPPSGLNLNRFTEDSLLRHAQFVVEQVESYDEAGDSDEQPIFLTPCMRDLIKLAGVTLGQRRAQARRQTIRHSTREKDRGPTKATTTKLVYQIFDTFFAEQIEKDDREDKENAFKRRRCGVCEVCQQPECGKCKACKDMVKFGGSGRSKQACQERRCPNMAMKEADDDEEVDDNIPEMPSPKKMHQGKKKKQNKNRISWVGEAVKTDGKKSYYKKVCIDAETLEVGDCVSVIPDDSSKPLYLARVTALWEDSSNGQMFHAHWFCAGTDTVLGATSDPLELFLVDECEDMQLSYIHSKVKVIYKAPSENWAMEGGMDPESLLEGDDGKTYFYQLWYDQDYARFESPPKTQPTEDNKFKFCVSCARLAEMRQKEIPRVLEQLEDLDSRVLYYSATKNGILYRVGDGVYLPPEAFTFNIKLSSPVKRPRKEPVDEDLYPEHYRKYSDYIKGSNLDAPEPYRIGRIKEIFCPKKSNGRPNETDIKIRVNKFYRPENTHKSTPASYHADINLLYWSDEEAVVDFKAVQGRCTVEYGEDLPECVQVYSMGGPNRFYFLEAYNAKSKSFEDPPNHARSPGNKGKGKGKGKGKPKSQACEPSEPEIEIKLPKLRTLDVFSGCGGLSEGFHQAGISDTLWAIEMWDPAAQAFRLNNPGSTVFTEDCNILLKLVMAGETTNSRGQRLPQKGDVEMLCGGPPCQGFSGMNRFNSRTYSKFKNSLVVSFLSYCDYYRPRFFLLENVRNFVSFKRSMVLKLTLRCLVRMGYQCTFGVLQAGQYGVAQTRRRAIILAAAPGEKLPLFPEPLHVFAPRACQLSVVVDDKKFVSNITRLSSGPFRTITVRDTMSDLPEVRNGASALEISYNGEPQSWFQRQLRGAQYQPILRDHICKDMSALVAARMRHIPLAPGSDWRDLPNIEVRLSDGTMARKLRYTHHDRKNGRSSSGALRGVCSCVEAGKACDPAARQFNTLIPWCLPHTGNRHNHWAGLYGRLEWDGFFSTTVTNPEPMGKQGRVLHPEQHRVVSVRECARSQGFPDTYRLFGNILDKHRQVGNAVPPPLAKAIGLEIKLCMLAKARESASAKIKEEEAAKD
(§2) In the HL-60 xenograft mice model, 2 mg/kg of NTX-301 (Aza-T-dCyd) or 0.75 mg/kg of Decitabine were administered intraperitoneally, and then tumor samples were collected on day 11 to determine the expression of DNMT1, DNMT3A, and DNMT3B. […] On the other hand, the expression levels of DNMT3A and DNMT3B were different in the Aza-T-dCyd and Decitabine treatment groups.

For a further series, the system named is BL0382PD PDX (bladder). The format is in vivo, Mouse. Conditions: NSG, mouse, in vivo, 0.75 mg/kg, 2 cycles. The text has this:
The efficacy of Aza-T-dCyd was confirmed by tumor growth curves after administration of Aza-T-dCyd in various solid cancer xenograft models. […]

Series [3] has as its target T1, DNMT1. Briefly: DNMT1 protein Western blotting in cancer cell lines. Set-up: endogenous in cells; host or cells: MV4-11, KG-1a, CCRF-CEM, NCI-H23, HCT-116, IGROV-1 (also HL-60, THP-1). The format is cell-based.
The target of another series is DNMT3B (Homo sapiens, UniProt Q9UBC3). As to the kind of experiment: DNMT3B expression in HL-60 xenograft tumor samples. Set-up: tumor samples were collected on day 11 to determine the expression of DNMT1, DNMT3A, and DNMT3B; from tissue; host or cells: HL-60 xenograft tumour samples (mouse host). To be noted: 2 mg/kg NTX-301 or 0.75 mg/kg Decitabine intraperitoneally, day 11. The format is in vivo, mice. The method, then: as §1, §2

A further series has as its system HCT-116 (colorectal). Briefly: HCT-116 (colorectal) xenograft model. The format is in vivo, Mouse. To be noted: colorectal (HCT-116) xenograft, Decitabine comparator, dose not given. The method, then:
The efficacy of Aza-T-dCyd was confirmed by tumor growth curves after administration of Aza-T-dCyd in various solid cancer xenograft models. Aza-T-dCyd at a dose of 1~2 mg/kg was administered repeatedly for 2~6 cycles in QD×5, showing excellent anti-cancer effects (evidenced by test/control (T/C) value≤40%).

Another series concerns HL-60 AML xenograft. As to the kind of experiment: HL-60 AML xenograft model. The format is in vivo.
In series [4] the test system is p15 tumor suppressor gene. As to the kind of experiment: p15 tumor suppressor gene re-expression (RT-PCR) in MV4-11 cells. It is filed as cell-based. Conditions: MV4-11 cell line. The method, then: Therefore, to determine the re-expression of tumor suppressor genes through epigenetic regulation mechanisms induced by DNMT1 inhibition upon Aza-T-dCyd (NTX-301) treatment, MV4-11 cells, an AML cell line, were treated with Aza-T-dCyd at different concentrations. […] Table 1 below compares the degree of p15 mRNA re-expression after DNMT1 inhibitor (Aza-T-dCyd/Decitabine) treatment in the MV4-11 cell line, an AML cell (fold increase from 0 nM is shown).

Another series concerns MV4-11 AML cells. As to the kind of experiment: MV4-11 AML xenograft implanted subcutaneously, combination with venetoclax. The format is in vivo, mice. To be noted: administered alone (Aza-T-dCyd 2 mpk), FIGS. 30 and 31. The method, then: After establishing a xenograft systemic AML model in which MV4-11 AML cells were implanted subcutaneously in mice, Aza-T-dCyd alone at 2.0 mpk for 1 cycle (5 days on, 2 days off, 5 days on, 9 days off) was administered (PO) or Aza-T-dCyd 0.5, 1.0 or 2.0 mpk plus venetoclax 50 mpk or 100 mpk administered orally (PO) for 1 cycle (venetoclax on for 5 days, off for 2 days, repeated for 3 weeks). Anti-cancer efficacy was determined in disease models in which azacitidine 5.0 mpk was administered intraperitoneally (IP) alone or in combination with optimal dose of azacitidine (2.5 mpk) and venetoclax 50 mpk or 100 mpk as a control.

Another series relates to cytidine deaminase. Briefly: Degradation by cytidine deaminase. Conditions: compared to Decitabine/Azacytidine, oral administration. The text has this:
Decitabine/Azacytidine is susceptible to metabolism by cytidine deaminases in the body, resulting in an unstable PK profile that limits its efficacy.

SMILES strings stand for the structures. Read-outs that look alike come from different tables or passages of the source.

As for `Nc1ncn([C@@H]2O[C@H](CO)[C@@H](O)[C@H]2O)c(=O)n1` [Azacytidine, reference compound], in [1] (mouse, in vivo), the “complete blood count (WBC, RBC, Neutrophil, Platelet)” value is reported as “severe neutropenia”.

`Nc1ncn([C@H]2C[C@H](O)[C@@H](CO)O2)c(=O)n1` [Decitabine, 5-aza-2′-deoxycytidine]: in series [1] (Aza-T-dCyd oral 1.5, 2.0 and 2.5 mg/kg, decitabine/azacytidine at standard preclinical dose/schedule), the “anti-AML activity and survival” value is recorded as “no therapeutic effect”. Besides, in series [1] (blood at Day 21, 36, 56, 77), the “complete blood count (WBC, RBC, Neutrophil, Platelet)” value is reported as “all individuals died before blood samples were collected”. Moreover, the “pattern of DNA demethylation” value in the series with DNA methylation was “genome-wide demethylation”. The GI50 in the series with leukemia cell lines was 24 to 4300 nM. In addition, the “DNMT1 expression in tumor samples” value at DNMT1 [2] is reported as “significantly reduced”. Further, in the series on BL0382PD PDX (bladder), the toxicity result was “showed toxicity after 2 cycles”. Moreover, the DNMT1 inhibition result on DNMT1 [3] (MV4-11 (AML cell line) cells, different concentrations, FIG. 10) is listed as “inhibits DNMT1”. Further, the “DNMT3B expression level in tumor samples” value at DNMT3B is on record as “no effect was observed”. Moreover, the T/C in the series on HCT-116 (colorectal) is listed as 45%. Also, the “tolerability above the maximum dose” value in the series with HL-60 AML xenograft (above 0.75 mg/kg) is “animals died above this dose”. Moreover, in the series on HL-60 AML xenograft (maximum dose 0.75 mg/kg), the tumor suppression entry is “no tumor suppression”. Further, the “p15 mRNA re-expression” value in series [4] (6 nM) is reported as 1.3 ± 0.27 fold increase from 0 nM; in series [4] (20 nM), 1.7 ± 0.85 fold increase from 0 nM; in [4] (60 nM) it was 2.2 ± 0.52 fold increase from 0 nM; in [4] (200 nM), 4.3 ± 0.83 fold increase from 0 nM.

As to `Nc1ccn([C@H]2C[C@H](O)[C@@H](CO)S2)c(=O)n1` [T-dCyd, reference compound], the DNMT1 inhibition entry is given as “inhibits DNMT1” on DNMT1 [3] (CCRF-CEM (ALL cell line) cells, FIG. 12); “inhibits DNMT1” on DNMT1 [3] (KG-1a (AML cell line) cells, FIG. 11); “inhibits DNMT1” on DNMT1 [3] (NCI-H23, HCT-116 and IGROV-1 cell lines, FIG. 13).

In the case of `CC1(C)CCC(CN2CCN(c3ccc(C(=O)NS(=O)(=O)c4ccc(NCC5CCOCC5)c([N+](=O)[O-])c4)c(Oc4cnc5[nH]ccc5c4)c3)CC2)=C(c2ccc(Cl)cc2)C1` [Venetoclax], in the series with MV4-11 AML cells, the “anti-cancer effect (tumor volume), single agent” value is on record as “limited tumor regression”.

As for `Nc1ncn(C2CC(O)C(COP(=O)(O)OP(=O)(O)OP(=O)(O)O)S2)c(=O)n1` (stereo not drawn) [aza-T-dCTP], in the series on cytidine deaminase, the “rate of degradation by cytidine deaminase” value is on record as “slower rate of degradation by cytidine deaminase”.
